Source: patent US10611740B2, “Aryl dihydro-2H-benzo[b][1,4]oxazine sulfonamide and related compounds for use as agonists of RORγ and the treatment of disease” (Lycera Corporation, priority 2015, dated 2020)

Experiments:
RORγ-LBD = target: T1, RORγ-LBD (Homo sapiens, UniProt P51449); test: RORγ-Ligand Binding Domain (LBD) TR-FRET Assay; format: biochemical;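 for TR-FRET Assay Max Response: 665/615 nm ratio relative to signal without ursolic acid or compound set at 100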
T1 construct: made in house; host or cells: SF9 cells (baculovirus)
T1 sequence (P51449 269-508 limits assumed): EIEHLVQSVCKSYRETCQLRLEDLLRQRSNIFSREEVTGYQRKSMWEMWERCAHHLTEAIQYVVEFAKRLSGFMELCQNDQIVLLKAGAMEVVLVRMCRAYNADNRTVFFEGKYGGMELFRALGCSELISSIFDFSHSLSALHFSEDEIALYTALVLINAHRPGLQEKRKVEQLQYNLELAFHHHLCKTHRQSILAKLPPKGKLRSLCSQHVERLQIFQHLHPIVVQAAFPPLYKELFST
Outline: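 His-tagged RORγ-LBD from SF9 baculovirus lysate, ~3 nM final, in 50 mM Tris pH 7.0, 50 mM KCl, 1 mM EDTA, 0.1 mM DTT, 0.01% BSA. Biotinylated SRC1 LXXLL peptide at 200 nM final with 2 μM ursolic acid; TR-FRET read-out, 1% DMSO final.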

Gal4-RORγ-LBD = target: T2, Gal4-RORγ-LBD (Homo sapiens, UniProt P51449); test: Gal4-RORγ Luciferase Reporter Assay in HEK-293T Cells; format: cell-based; settings: HEK-293 cells
T2 construct: expressed in transfected cells; host or cells: HEK-293 cells (pcDNA3.1neo plasmid)
T2 sequence (P51449 269-508 limits assumed): T1 sequence (P51449 269-508 limits assumed)
Outline: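 HEK-293 cells were transiently co-transfected with Gal4-RORγ-LBD and pGL4.31 Gal4-luciferase, with ursolic acid added at 2 μM final. Compounds were incubated overnight at 37° C. in 0.2% DMSO and luminescence read with One-Glo. Max Response is the upper plateau of a 4-parameter logistic fit, with signal lacking ursolic acid or compound set to 100.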

[1] = luciferase reporter, with 2 μM ursolic acid

| EC50 (RORγ-LBD) [nM] | EC50 (Gal4-RORγ-LBD; 2 μM ursolic acid) [nM] | EC50 (Gal4-RORγ-LBD; [1]) [nM] | SMILES | TR-FRET Assay Max Response (RORγ-LBD) | Gal4-RORγ Assay Max Response (Gal4-RORγ-LBD; 2 μM ursolic acid) | Gal4-RORγ Assay Max Response (Gal4-RORγ-LBD; [1]) |
| --- | --- | --- | --- | --- | --- | --- |
| 500 to 5000 | 500 to 5000 | – | CC(C)(C(=O)NC[C@H]1CN(S(=O)(=O)c2cccc(C(F)(F)F)c2)c2cc(-c3cc(F)cc(F)c3Cl)ccc2O1)C(F)(F)F [Compound 30CL, (S)-N-((6-(2-chloro-3,5-difluoro-phenyl)-4-((3-(trifluoromethyl)-phenyl)sulfonyl)-3,4-dihydro-2H-benzo[b][1,4]oxazin-2-yl)methyl)-3,3,3-trifluoro-2,2-dimethylpropanamide] | ** (The symbol “**” indicates a value in the range of greater than 90 to 150) | * (The symbol “*” indicates a value in the range of 25 to 90) | – |
| < 500 | – | < 500 | Cc1ccc(-c2ccc3c(c2)N(S(=O)(=O)c2cccc(C(F)(F)F)c2)C[C@H](CCC(=O)O)O3)cc1 [Compound 2X, (S)-3-(6-(p-tolyl)-4-((3-(trifluoromethyl)phenyl)-sulfonyl)-3,4-dihydro-2H-benzo[b][1,4]oxazin-2-yl)propanoic acid] | **** (The symbol “****” indicates a value greater than 200) | – | ** (The symbol “**” indicates a value in the range of greater than 90 to 150) |
| < 500 | – | 500 to 5000 | O=C(O)CNC(=O)NCC[C@H]1CN(S(=O)(=O)c2cccc(C(F)(F)F)c2)c2cc(-c3cc(F)ccc3F)ccc2O1 [Compound 23X, (S)-((2-(6-(2,5-difluorophenyl)-4-((3-(trifluoromethyl)phenyl)-sulfonyl)-3,4-dihydro-2H-benzo[b][1,4]oxazin-2-yl)ethyl)carbamoyl)glycine] | **** (The symbol “****” indicates a value greater than 200) | – | ** (The symbol “**” indicates a value in the range of greater than 90 to 150) |
| < 500 | – | 500 to 5000 | O=C(NC[C@H]1CN(S(=O)(=O)c2cccc(C(F)(F)F)c2)c2cc(-c3cc(F)ccc3F)ccc2O1)c1cnco1 [Compound 30AK, (S)-N-((6-(2,5-difluorophenyl)-4-((3-(trifluoromethyl)phenyl)-sulfonyl)-3,4-dihydro-2H-benzo[b][1,4]oxazin-2-yl)methyl)oxazole-5-carboxamide] | **** (The symbol “****” indicates a value greater than 200) | – | ** (The symbol “**” indicates a value in the range of greater than 90 to 150) |
| < 500 | – | < 500 | Cn1cc(C(=O)NC[C@H]2CN(S(=O)(=O)c3cccc(C(F)(F)F)c3)c3cc(-c4cc(F)ccc4F)ccc3O2)cn1 [Compound 30AH, (S)-N-((6-(2,5-difluorophenyl)-4-((3-(trifluoromethyl)phenyl)-sulfonyl)-3,4-dihydro-2H-benzo[b][1,4]oxazin-2-yl)methyl)-1-methyl-1H-pyrazole-4-carboxamide] | *** (The symbol “***” indicates a value in the range of greater than 150 to 200) | – | ** (The symbol “**” indicates a value in the range of greater than 90 to 150) |
| < 500 | – | < 500 | O=C(O)CC[C@H]1CN(S(=O)(=O)c2cccc(C3CC3)c2)c2cc(-c3cccc(Cl)c3)ccc2O1 [Compound 6H, (S)-3-(6-(3-chlorophenyl)-4-((3-cyclopropylphenyl)sulfonyl)-3,4-dihydro-2H-benzo[b][1,4]oxazin-2-yl)propanoic acid] | **** (The symbol “****” indicates a value greater than 200) | – | ** (The symbol “**” indicates a value in the range of greater than 90 to 150) |
| < 500 | – | < 500 | CC(C)(C[C@H]1CN(S(=O)(=O)c2cccc(C(F)(F)F)c2)c2cc(-c3cccc(OC(F)F)c3)ccc2O1)C(=O)O [Compound 32G, (S)-3-(6-(3-(difluoromethoxy)-phenyl)-4-((3-(trifluoromethyl)-phenyl)sulfonyl)-3,4-dihydro-2H-benzo[b][1,4]oxazin-2-yl)-2,2-dimethylpropanoic acid] | *** (The symbol “***” indicates a value in the range of greater than 150 to 200) | – | ** (The symbol “**” indicates a value in the range of greater than 90 to 150) |
